Values quoted from earlier work as cited in US12358983B2, “Combination of anti CD19 antibody with a BCL-2 inhibitor and uses thereof” (Incyte Corporation, priority 2016, dated 2025).

Columns and labels:
[1] = mouse, in vivo; cited from earlier work
[2] = tested on: primary cells from patients with B-cell malignancies; conditions: in vitro studies; cited from earlier work
[3] = tested on: lymphoma and other blood cancers; conditions: in vivo; cited from earlier work

CN(C)CC[C@H](CSc1ccccc1)Nc1ccc(S(=O)(=O)NC(=O)c2ccc(N3CCN(Cc4ccccc4-c4ccc(Cl)cc4)CC3)cc2)cc1[N+](=O)[O-] [ABT-737]
Effect in animal models (in words) [1]: improves survival, causes tumor regression and cures a high percentage of mice
Sensitivity of primary cells (in words) [2]: sensitive
Efficacy in patient xenografts (in words) [3]: showed efficacy
